Reference: patent US20100222396A1 (Novartis AG, priority 2009, published 2010)

Tests used:
[1] = biological target: T1, human orexin 1 receptor (hOx1R) (Homo sapiens, UniProt O43613); assay: Calcium accumulation in cells (FLIPR), antagonism of orexin A, hOx1R; assay type: cell-based; conditions: for inhibition at 10 µM: measured at a concentration of 10 μM of compound (cells marked ^a); for Kd: cells expressing human orexin 1 receptor, IC50 vs orexin A converted by Cheng and Prusoff correction
T1 construct: expressed in transfected cells
T1 sequence (O43613 1-425): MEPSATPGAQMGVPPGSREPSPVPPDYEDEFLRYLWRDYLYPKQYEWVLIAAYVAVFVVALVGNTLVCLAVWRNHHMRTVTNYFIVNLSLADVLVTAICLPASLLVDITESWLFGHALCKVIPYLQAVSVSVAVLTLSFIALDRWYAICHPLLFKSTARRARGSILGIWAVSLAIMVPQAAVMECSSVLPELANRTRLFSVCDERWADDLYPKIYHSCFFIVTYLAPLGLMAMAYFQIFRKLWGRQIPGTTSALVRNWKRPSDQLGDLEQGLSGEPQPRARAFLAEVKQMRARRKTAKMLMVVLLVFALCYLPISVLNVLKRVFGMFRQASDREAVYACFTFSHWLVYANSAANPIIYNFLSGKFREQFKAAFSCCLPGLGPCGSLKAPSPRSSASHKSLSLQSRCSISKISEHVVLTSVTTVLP
How it was run: (§1)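 Serum-starved receptor-expressing cells were loaded with Fluo-4-AM (2 μM) plus probenecid (0.1 mM) in HEPES buffer, pH 7.4, with 1% BSA, and Ca2+ fluorescence was read on FLIPR. Compounds (10^−9–10^−5 M) were added first, and orexin A was added one hour later to measure antagonism.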

[2] = biological target: T2, human orexin 2 receptor (hOx2R) (Homo sapiens, UniProt O43614); assay: Radioligand binding assay ([125I]orexin A competition), hOx2R; conditions: CHO or HEK cell membranes, 1 h room temperature
T2 construct: expressed in transfected cells
T2 sequence (O43614 1-444): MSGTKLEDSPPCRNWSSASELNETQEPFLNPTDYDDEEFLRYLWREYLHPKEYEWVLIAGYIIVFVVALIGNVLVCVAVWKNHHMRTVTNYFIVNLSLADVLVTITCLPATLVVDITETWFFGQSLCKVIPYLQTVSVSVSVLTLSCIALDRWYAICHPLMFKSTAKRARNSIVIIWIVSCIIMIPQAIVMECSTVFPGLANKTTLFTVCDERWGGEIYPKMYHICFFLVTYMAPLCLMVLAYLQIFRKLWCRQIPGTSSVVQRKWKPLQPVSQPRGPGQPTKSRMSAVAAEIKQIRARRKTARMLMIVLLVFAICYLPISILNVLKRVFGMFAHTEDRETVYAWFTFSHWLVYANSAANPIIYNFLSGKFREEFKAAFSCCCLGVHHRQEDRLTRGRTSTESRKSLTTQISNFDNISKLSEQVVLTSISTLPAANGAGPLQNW
How it was run: (§2)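 Membranes from CHO or HEK cells expressing the human receptor, incubated 1 h at room temperature with […] [125I]orexin A and compound in HEPES pH 7.5 buffer with BSA, MgCl2, CaCl2 and tween.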

[3] = biological target: T1, human orexin 1 receptor (hOx1R); assay: Radioligand binding assay ([125I]orexin A competition), hOx1R; conditions: CHO or HEK cell membranes, 1 h room temperature
How it was run: as §2

[4] = biological target: T2, human orexin 2 receptor (hOx2R); assay: Calcium accumulation in cells (FLIPR), antagonism of orexin A, hOx2R; assay type: cell-based; conditions: for Kd: cells expressing human orexin 2 receptor, IC50 vs orexin A converted by Cheng and Prusoff correction
How it was run: as §1

Compound | inhibition at 10 µM [1] [%] | Kd [2] [nM] | Kd [3] [nM] | inhibition at 10 µM ([4]; measured at a concentration of 10 μM of compound (cells marked ^a)) [%] | Kd [1] [nM] | Kd [4] [nM]
CN(C(=O)c1ccccc1)[C@H](CCNC(=O)c1ccnc2ccccc12)Cc1ccccc1 [Example 2, Quinoline-4-carboxylic acid [(S)-3-(benzoyl-methyl-amino)-4-phenyl-butyl]-amide] | 4 | 4970 | > 10000 | 19 |  | 
CN(C(=O)c1ccccc1)[C@@H](Cc1ccccc1)[C@@H](O)CNC(=O)c1ccccn1 [Example 95, Pyridine-2-carboxylic acid [(2S,3S)-3-(benzoyl-methyl-amino)-2-hydroxy-4-phenyl-butyl]-amide] |  | 59 | 3440 |  | 3430 | 140
Cc1nc2sccn2c1C(=O)NCC[C@H](Cc1ccccc1)N(C)C(=O)c1ccc2c(c1)OCO2 [Example 82, 6-Methyl-imidazo[2,1-b]thiazole-5-carboxylic acid {(S)-3-[(benzo[1,3]dioxole-5-carbonyl)-methyl-amino]-4-phenyl-butyl}-amide] |  | 12 | 163 |  | 963 | 2
CN(C(=O)c1cccc(OC(F)(F)F)c1)[C@H](CCNC(=O)c1cccn1C)Cc1ccccc1 [Example 123, 1-Methyl-1H-pyrrole-2-carboxylic acid {(S)-3-[methyl-(3-trifluoromethoxy-benzoyl)-amino]-4-phenyl-butyl}-amide] |  | 30 | 1580 |  | 865 | 7
CN(C(=O)c1cc(C(F)(F)F)cc(C(F)(F)F)c1)C(CCNC(=O)c1ccccn1)Cc1ccc(Cl)cc1 (stereo not drawn) [Example 16, Pyridine-2-carboxylic acid [3-[(3,5-bis-trifluoromethyl-benzoyl)-methyl-amino]-4-(4-chloro-phenyl)-butyl]-amide] |  | 74 | > 10000 |  | 1510 | 44
CN(C(=O)c1ccc2ccccc2c1)[C@H](CCNC(=O)c1nc2ccccc2n1C)Cc1ccccc1 [Example 44, 1-Methyl-1H-benzoimidazole-2-carboxylic acid {(S)-3-[methyl-(naphthalene-2-carbonyl)-amino]-4-phenyl-butyl}-amide] |  | 781 | 82 |  | 33 | 90
CN(C(=O)c1ccccc1)[C@@H](CCNC(=O)c1ccccn1)Cc1ccccc1 [Example 68, Pyridine-2-carboxylic acid [(R)-3-(benzoyl-methyl-amino)-4-phenyl-butyl]-amide] |  | 7530 | > 10000 |  | 3580 | 2370
CN(C(=O)c1cccc2[nH]ccc12)[C@H](CCNC(=O)c1nc2ccccc2n1C)Cc1ccccc1 [Example 3, 1-Methyl-1H-benzoimidazole-2-carboxylic acid {(S)-3-[(1H-indole-4-carbonyl)-methyl-amino]-4-phenyl-butyl}-amide] |  | 10 | 17 |  | 48 | 3
1-Methyl-1H-pyrrole-2-carboxylic acid {(8)-3-[(3,5-difluoro-benzoyl)-methyl-amino]-4-phenyl-butyl}-amide [Example 118] |  | 76 | 977 |  | 1070 | 55
CN(C(=O)c1ccccc1)[C@H](CCNC(=O)c1cccc2cccnc12)Cc1ccccc1 [Example 49, Quinoline-8-carboxylic acid [(S)-3-(benzoyl-methyl-amino)-4-phenyl-butyl]-amide] | 9 | 1070 | 2450 |  |  | 414
CN(C(=O)c1ccc2c(c1)OCO2)[C@H](CCNC(=O)c1cccn1C)Cc1ccccc1 [Example 76] |  | 4 | 94 |  | 376 | 1
CN(C(=O)c1ccc2[nH]ccc2c1)[C@H](CCNC(=O)c1nc2ccccc2n1C)Cc1ccccc1 [Example 81, 1-Methyl-1H-benzoimidazole-2-carboxylic acid {(S)-3-[(1H-indole-5-carbonyl)-methyl-amino]-4-phenyl-butyl}-amide] |  | 23 | 6 |  | 12 | 13
